# In patent US20030125311A1, “Compounds capable of binding with the cytoskeleton” (priority 2002, published 2003):
# Structures can show the parent of a compound that is named as a salt.
# What was measured:
# [1] = system: rat brain cytosol binding sites of pregnenolone; assay: Competition trials for PREG [3H] binding in brain cytosol; design: key to R.C.R. 50 (relative competition index): IC50(PREG)/IC50(competitor) ×100; PREG = 100; conditions: for R.C.R. 50 (relative competition index): PREG = 100, 50% reduction of specific binding of 100 nM PREG [3H], mean±standard error, n=3
# Method: (§1) In trials of competition between pregnenolone and different steroids for the binding studied, 0.2 ml of cytosol is incubated with 100 nM of PREG [^3H] and a 1-, 10-, 100-, and 1,000-fold excess of non-radioactive steroid.
# To study the specificity of the binding of PREG [^3H], different steroids were used.
# (§2) The relative competition index was determined as ratios of the concentrations of the competitor (in the […]) versus PREG causing a reduction of 50% of the specific binding of PREG [^3H]×100 (mean±standard error, n=3).
# [2] = system: binding sites of PREG [3H] in brain cytosol; assay: Effects of hydrolytic enzymes on the binding of PREG [3H] in cytosol; design: species or system rat
# Method: Proteinase K (Merck, Darmstadt, Germany) and Pronase® are dissolved at 1 mg/ml in TNM buffer containing 10 mM of Tris, 0.1M of NaCl, 3 mM of MgCl2 (pH 7.4). Deoxyribonuclease I and ribonuclease A are products of Sigma-Aldrich and are respectively adjusted to 100 IU/ml and 5 IU/ml. Phospholipase A2 (Roche Molecular Biochemicals) is diluted to 20 IU/ml in TNM.
# 1 ml of brain cytosol is incubated with 0.2 ml of an enzyme solution at 37° C. for 30 min. The binding activity is studied of samples (0.2 ml) which had undergone the enzyme treatment or control samples diluted with buffer only.
# To study the effects of hydrolytic enzymes on the binding of PREG [^3H], samples of 1 ml of cytosol incubated with 0.2 ml of an enzyme solution at 37° C. for 30 min were used. The results obtained, expressed as % of the control incubation (cytosol diluted in a buffer) are reported in Table 1 (mean±standard error, n=3).
# Cytosol (piglet) = assay: Index of competition with pregnenolone, cytosol (piglet); assay type: binding; conditions: Pregnenolone = 100%; cell marked piglet
# Method: as §1
# MT (Beef) = assay: Index of competition with pregnenolone, MT (beef); assay type: binding; conditions: Pregnenolone = 100%
# Method: as §1
# fetal microtubules = fetal microtubules (Rattus norvegicus, UniProt P15146); assay: Competition for PREG [3H] binding to fetal microtubules (RCR); conditions: PREG = 100
# fetal microtubules, sequence (P15146 whole entry): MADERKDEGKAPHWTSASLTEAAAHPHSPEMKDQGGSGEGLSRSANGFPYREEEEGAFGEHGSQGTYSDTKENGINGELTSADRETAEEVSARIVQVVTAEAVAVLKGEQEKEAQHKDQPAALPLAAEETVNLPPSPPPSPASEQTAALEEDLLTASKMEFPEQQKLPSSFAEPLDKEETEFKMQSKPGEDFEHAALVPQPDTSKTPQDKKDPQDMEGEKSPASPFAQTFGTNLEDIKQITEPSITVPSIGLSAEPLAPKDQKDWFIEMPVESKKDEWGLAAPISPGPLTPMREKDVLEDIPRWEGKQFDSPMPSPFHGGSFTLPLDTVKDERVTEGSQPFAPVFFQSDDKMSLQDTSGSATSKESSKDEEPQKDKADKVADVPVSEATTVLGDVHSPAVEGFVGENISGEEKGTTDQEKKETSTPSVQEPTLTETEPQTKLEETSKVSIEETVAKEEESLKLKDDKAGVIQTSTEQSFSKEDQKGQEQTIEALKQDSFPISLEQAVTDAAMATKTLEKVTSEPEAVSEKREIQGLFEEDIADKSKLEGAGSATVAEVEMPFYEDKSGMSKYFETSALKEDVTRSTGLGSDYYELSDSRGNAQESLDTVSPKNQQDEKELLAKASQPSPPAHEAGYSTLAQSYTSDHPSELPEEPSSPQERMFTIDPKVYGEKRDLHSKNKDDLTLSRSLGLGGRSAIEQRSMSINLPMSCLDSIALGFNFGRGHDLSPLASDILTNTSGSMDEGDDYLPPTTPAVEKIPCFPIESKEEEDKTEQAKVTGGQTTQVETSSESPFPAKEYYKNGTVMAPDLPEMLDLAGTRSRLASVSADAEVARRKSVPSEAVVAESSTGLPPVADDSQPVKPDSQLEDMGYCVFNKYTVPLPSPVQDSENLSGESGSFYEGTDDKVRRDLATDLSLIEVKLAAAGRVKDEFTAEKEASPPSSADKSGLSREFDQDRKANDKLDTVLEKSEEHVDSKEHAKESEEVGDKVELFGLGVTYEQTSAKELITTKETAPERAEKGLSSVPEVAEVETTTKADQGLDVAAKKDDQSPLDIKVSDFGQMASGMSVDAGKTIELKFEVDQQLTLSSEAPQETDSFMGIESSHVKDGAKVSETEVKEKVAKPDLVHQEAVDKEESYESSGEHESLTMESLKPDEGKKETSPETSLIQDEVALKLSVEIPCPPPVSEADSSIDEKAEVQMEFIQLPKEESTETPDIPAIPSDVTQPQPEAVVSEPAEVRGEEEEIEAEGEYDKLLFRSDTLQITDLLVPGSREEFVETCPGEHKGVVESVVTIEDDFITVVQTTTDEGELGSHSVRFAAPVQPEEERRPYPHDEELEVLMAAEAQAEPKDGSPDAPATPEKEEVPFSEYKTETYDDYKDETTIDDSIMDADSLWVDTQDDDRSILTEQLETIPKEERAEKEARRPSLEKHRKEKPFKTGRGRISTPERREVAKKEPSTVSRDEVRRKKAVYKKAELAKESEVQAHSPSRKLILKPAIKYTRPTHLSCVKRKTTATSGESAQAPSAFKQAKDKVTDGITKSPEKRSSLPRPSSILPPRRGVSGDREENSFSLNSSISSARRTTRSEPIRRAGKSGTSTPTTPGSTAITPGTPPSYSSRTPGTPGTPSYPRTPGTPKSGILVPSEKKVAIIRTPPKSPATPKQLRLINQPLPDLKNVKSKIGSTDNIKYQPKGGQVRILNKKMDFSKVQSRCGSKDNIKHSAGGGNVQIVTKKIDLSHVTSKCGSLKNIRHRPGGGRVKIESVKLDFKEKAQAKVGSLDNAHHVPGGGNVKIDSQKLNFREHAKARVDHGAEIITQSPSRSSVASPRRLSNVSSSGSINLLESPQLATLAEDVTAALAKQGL
# Method: as §1
# The microtubules are prepared starting from calf brain or adult or fetal rat brain according to an assembly/disassembly method, as a function of the temperature, in vitro (12).
# as §2
# The binding of PREG [^3H] to microtubules prepared by polymerization/depolymerization cycles was determined.
# MAP2-tubulin copolymers = MAP2-tubulin copolymers (Bos taurus, UniProt A0A3Q1NAK9); assay: Competition for PREG [3H] binding to MAP2-tubulin copolymers (RCR); design: species or system calf; conditions: for RCR: MAP2-tubulin copolymers, PREG = 100
# MAP2-tubulin copolymers, sequence (A0A3Q1NAK9 1-1867): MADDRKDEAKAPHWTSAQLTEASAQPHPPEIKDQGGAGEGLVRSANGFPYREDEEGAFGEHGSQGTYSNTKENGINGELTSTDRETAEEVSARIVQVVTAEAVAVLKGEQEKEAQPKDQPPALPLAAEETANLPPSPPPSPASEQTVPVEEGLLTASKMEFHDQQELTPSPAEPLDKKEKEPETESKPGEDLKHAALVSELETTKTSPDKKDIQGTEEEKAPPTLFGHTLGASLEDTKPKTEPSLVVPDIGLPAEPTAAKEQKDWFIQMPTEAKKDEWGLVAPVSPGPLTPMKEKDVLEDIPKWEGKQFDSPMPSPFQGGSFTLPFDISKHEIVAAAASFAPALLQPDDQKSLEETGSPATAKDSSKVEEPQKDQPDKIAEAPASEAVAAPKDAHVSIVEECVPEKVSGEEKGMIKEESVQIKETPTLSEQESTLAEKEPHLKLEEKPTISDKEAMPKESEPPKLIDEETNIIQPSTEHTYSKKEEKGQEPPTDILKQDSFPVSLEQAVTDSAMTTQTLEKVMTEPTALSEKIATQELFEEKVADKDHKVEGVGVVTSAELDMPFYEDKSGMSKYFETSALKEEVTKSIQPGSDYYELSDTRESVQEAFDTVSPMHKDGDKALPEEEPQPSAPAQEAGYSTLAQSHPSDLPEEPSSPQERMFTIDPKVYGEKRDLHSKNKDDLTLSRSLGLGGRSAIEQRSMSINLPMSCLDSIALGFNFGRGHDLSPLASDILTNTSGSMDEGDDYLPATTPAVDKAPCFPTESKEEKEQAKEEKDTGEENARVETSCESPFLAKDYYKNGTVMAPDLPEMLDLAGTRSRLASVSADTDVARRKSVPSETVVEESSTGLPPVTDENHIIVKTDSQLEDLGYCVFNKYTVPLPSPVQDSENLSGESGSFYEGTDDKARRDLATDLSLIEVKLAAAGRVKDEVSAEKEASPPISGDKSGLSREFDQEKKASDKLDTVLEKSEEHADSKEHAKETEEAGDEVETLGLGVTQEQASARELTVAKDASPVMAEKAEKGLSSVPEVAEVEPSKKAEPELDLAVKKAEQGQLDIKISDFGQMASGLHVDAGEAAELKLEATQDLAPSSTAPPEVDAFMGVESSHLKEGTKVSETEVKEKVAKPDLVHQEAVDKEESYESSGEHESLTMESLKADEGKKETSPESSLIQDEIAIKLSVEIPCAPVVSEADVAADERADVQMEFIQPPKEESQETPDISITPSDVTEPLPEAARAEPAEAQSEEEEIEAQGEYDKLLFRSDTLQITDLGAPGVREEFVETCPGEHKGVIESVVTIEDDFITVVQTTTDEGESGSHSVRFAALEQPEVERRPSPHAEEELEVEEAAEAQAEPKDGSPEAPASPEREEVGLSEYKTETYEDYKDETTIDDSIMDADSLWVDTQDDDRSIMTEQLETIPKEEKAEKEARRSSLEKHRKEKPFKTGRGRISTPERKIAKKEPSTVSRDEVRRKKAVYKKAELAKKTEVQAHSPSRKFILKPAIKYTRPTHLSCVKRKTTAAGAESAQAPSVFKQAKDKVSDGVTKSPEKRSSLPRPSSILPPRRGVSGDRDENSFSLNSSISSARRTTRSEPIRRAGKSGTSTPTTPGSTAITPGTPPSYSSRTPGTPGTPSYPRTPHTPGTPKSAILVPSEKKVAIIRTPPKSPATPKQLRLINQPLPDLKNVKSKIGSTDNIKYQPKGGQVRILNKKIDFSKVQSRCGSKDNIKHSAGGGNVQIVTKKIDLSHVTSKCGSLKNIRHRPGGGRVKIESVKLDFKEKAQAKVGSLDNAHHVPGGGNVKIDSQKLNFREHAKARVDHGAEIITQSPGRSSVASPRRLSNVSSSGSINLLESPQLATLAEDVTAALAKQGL
# Method: as §1, §2
# Purified calf brain tubulin (90 μg/ml), MAP2 (45 μg/ml) or tau protein (25 μg/ml) is incubated with 100 nM of PREG [^3H], with or without a 1,000-fold excess of non-radioactive PREG.
# [3] = biological target: T1, microtubules reconstituted with purified tubulin and MAP2 (Bos taurus, UniProt A0A3Q1NAK9); assay: Kinetics of assembling of microtubules (turbidity at 345 nm); assay type: biochemical, calf; conditions: for effect on assembling of microtubules (absorbance at 345 nm): 500 nM steroid, 37° C., 15 min
# T1 construct: from tissue; host or cells: calf brain
# T1 sequence (A0A3Q1NAK9 1-1867): as above
# Method: This assembling is measured by monitoring the increases of turbidity with a UVICON® spectrophotometer (Kontron Instruments, Montigny-le-Bretonneux, France)
# The microtubules are reconstituted in vitro with purified tubulin (1 mg/ml) and MAP2 (0.05 mg/ml) in buffer A.
# The increase of absorbance is measured at 345 nm, at 37° C. and recorded every 30 sec. for 15 min.
# The assembling of microtubules is measured either in the absence of steroids (-⋄-); or in the presence of 500 nM of steroid: PREG (- -), progesterone (-X-), estradiol (-V-); or in the presence, at the same time, of PREG and progesterone (-∘-) or of PREG and estradiol (-Δ-) each at a concentration of 500 nM.
# Cytosol (Rat) = assay: Index of competition with pregnenolone, cytosol (rat); assay type: binding; conditions: Pregnenolone = 100%
# Method: as §1
# MAP-2c + Tubuline = biological target: T2, MAP-2c + Tubuline (Homo sapiens, UniProt P11137); assay: Index of competition with pregnenolone, MAP-2c + tubulin; assay type: binding; conditions: Pregnenolone = 100%
# T2 sequence (P11137 1-471 isoform P11137-2): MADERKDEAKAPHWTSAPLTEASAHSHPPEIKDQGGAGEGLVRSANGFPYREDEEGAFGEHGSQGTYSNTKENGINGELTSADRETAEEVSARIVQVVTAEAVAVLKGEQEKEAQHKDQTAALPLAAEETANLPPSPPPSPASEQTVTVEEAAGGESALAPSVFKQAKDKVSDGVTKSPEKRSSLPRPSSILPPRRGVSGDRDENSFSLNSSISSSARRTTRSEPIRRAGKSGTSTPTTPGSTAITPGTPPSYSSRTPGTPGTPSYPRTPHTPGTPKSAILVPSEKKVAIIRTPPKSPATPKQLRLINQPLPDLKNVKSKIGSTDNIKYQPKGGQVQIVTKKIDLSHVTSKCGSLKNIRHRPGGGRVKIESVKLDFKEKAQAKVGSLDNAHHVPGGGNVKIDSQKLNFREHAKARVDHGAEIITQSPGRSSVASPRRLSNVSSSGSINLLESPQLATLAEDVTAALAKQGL
# Method: as §1
molecule,measurement,setting,value
CC(=O)[C@@]1(O)CC[C@H]2[C@@H]3CCC4=CC(=O)CC[C@]4(C)[C@H]3CC[C@@]21C [17α-hydroxy-progesterone],R.C.R. 50 (relative competition index),[1],0.79
Phospholipase A2 [reference compound],% of Control (binding of PREG [3H]),"[2]; cytosol incubated with enzyme at 37° C. for 30 min, mean±standard error, n=3",85.0 ± 7.3%
same,effect on binding sites of PREG [3H] (in words),[2]; enzyme treatment of cytosol,no significant effect
CC(=O)OCC(=O)[C@H]1CC[C@H]2[C@@H]3CC=C4C[C@@H](O)CC[C@]4(C)[C@H]3CC[C@]12C [3β-OH-Pregna-5-ene-20-one-21-acetoxy],"Index of Competition, Cytosol (piglet)",Cytosol (piglet),80 (piglet) %
same,"Index of Competition, MT (Beef)",MT (Beef),107%
"C[C@]12CC[C@H]3[C@@H](CCC4=CC(=O)CC[C@@]43C)[C@@H]1CC[C@@H]2O [Testosterone, reference compound]",RCR,fetal microtubules,5.6
same,RCR,MAP2-tubulin copolymers,2.3
C[C@]12CC[C@@H]3c4ccc(O)cc4CC[C@H]3[C@@H]1CC[C@@H]2O [Estradiol],effect on assembling of microtubules (absorbance at 345 nm),[3],inactive
"C[C@H](O)C1CCC2C3CCC4CC(O)CCC4(C)C3CCC21C (stereo partly drawn) [5a-Pregnama 3β, 20a-diol]","Index of Competition, MT (Beef)",MT (Beef),96%
same,"Index of Competition, Cytosol (Rat)",Cytosol (Rat),100%
CC(=O)[C@@]1(O)CC[C@H]2[C@@H]3CC=C4C[C@@H](O)CC[C@]4(C)[C@H]3CC[C@@]21C [17α-hydroxy-pregnenolone],R.C.R. 50 (relative competition index),[1],0.85
"[2H]OC1CCC2(C)C(=CCC3C2CCC2(C)C3CCC2[C@H](C)O)C1 (stereo partly drawn) [Δ5-pregnene-3β.20α-diol, Δ5-pregnene-3β, 20α-diol]",competition for the binding of PREG [3H] (in words),[1],best competitors
same,R.C.R. 50 (relative competition index),[1],68.4 ± 15.3
same,"Index of Competition, MT (Beef)",MT (Beef),100 (beef) %
same,"Index of Competition, Cytosol (Rat)",Cytosol (Rat),87%
CC(C)CCC[C@@H](C)[C@H]1CC[C@H]2[C@@H]3CC=C4C[C@@H](O)CC[C@]4(C)[C@H]3CC[C@]12C [Cholesterol],R.C.R. 50 (relative competition index),[1],0.02
[2H]OC1CCC2(C)C(=CCC3C2CCC2(C)C3CC(C)C2C(C)=O)C1 (stereo not drawn) [PREG-16β-methyl],"Index of Competition, MAP-2c + Tubuline",MAP-2c + Tubuline,97%
same,"Index of Competition, MT (Beef)",MT (Beef),83 (beef) %
same,"Index of Competition, Cytosol (Rat)",Cytosol (Rat),63%
CC(=O)C1CCC2C3CC=C4CC(OS(=O)(=O)c5ccc(C)cc5)CCC4(C)C3CCC12C (stereo not drawn) [PREG Tosylate],"Index of Competition, MAP-2c + Tubuline",MAP-2c + Tubuline,129%
same,"Index of Competition, MT (Beef)",MT (Beef),121%
same,"Index of Competition, Cytosol (Rat)",Cytosol (Rat),107%
"CC(=O)C1CCC2C3CC=C4CC(OS(=O)(=O)O)CCC4(C)C3CCC12C (stereo not drawn) [Preqnenolone sulfate, pregnenolone sulfate]",competition for the binding of PREG [3H] (in words),[1],best competitors
same,R.C.R. 50 (relative competition index),[1],78.8 ± 7.0
same,effect on assembling of microtubules (absorbance at 345 nm),[3],effects similar to those of progesterone
same,RCR,fetal microtubules,78.8
same,RCR,MAP2-tubulin copolymers,91.5
"CC(=O)[C@H]1CC[C@H]2[C@@H]3CC[C@H]4C[C@@H](O)CC[C@]4(C)[C@H]3CC[C@]12C [3β-hydroxy-5α-pregnane 20-one, 3β-hydroxy-5α-pregnane-20-one]",competition for the binding of PREG [3H] (in words),[1],effective competitor
same,times less active than PREG as competitor,[1],5 times
same,R.C.R. 50 (relative competition index),[1],18.4 ± 4.0
C[C@]12CC[C@H](O)CC1=CC[C@@H]1[C@@H]2CC[C@]2(C)C(=O)CC[C@@H]12 [Dehydroepiandrosterone],RCR,MAP2-tubulin copolymers,2.3
"CC(=O)C1CC=C2C3CC=C4CC(O)CCC4(C)C3CCC21C (stereo not drawn) [3β-OH-5, 14 Preqnadiene-20-one]","Index of Competition, MT (Beef)",MT (Beef),95%
same,"Index of Competition, Cytosol (Rat)",Cytosol (Rat),102%
CC(=O)[C@H]1CC[C@H]2[C@@H]3CCC4=CC(=O)CC[C@]4(C)[C@H]3CC[C@]12C [Progesterone],competition for the binding of PREG [3H] (in words),[1],best competitors
same,R.C.R. 50 (relative competition index),[1],72.1 ± 17.7
same,effect on assembling of microtubules (absorbance at 345 nm),[3],without effect
same,effect on PREG-stimulated assembly of microtubules,"[3]; with PREG, each at 500 nM",counteracts the stimulative effect of PREG on the assembly of microtubules
same,RCR,fetal microtubules,72.1
same,binding to MAP2 (in words),MAP2-tubulin copolymers,affinity for MAP2 of the same order as that of PREG
same,RCR,MAP2-tubulin copolymers,81.3
CC(=O)C1[C@H](C)CC2C3CC=C4CC(O)CCC4(C)C3CCC21C (stereo partly drawn) [PREG-16a-methyl],"Index of Competition, MT (Beef)",MT (Beef),88%
same,"Index of Competition, Cytosol (Rat)",Cytosol (Rat),80%
